Consider 7 molecules from patent US20080097110A1, “Salt forms of substituted benzothienyl compounds” (priority 2006, published 2008).

A short description of series [1]: Dynamic vapor sorption (DVS) testing of salt forms. The format is physicochemical. As to the method: Dynamic vapor sorption (DVS) testing was performed on several salt forms and sorption and desorption results under various relative humidity (RH) conditions are shown in Table 3.
Series [2] in a line: Equilibrium solubility testing of salt forms. The class given is physicochemical. As to the method: Solubility testing was performed on several salt forms and results for free compound (mg) in media (ml) (represented as mg/ml) at equilibrium solubility are shown in Table 4. SIF refers to simulated intestinal fluid.

For `CO.CP(=O)(O)C(C(=O)N/C=C/c1ccc(F)c(F)c1)c1csc2ccc(Cl)cc12` (centres unmarked) [Form A], the Sorption is 0-30% RH: 0.34% in series [1] (0-30% RH), 0-90% RH: 2.94% in series [1] (0-90% RH) and 30-90% RH: 2.60% in series [1] (30-90% RH). The results for the Desorption in series [1] (30-0% RH) and in series [1] (90-30% RH) were 30-0% RH: 7.14% and 90-30% RH: 1.48%, respectively. In addition, the “Equilibrium solubility, free compound (mg) in media (ml)” value was 5.7 mg/mL in series [2] (media 0.1N HCL, pH 1.50 (A), 1.40 (Compound 1b), 1.51 (B1)); 46.5 mg/mL in series [2] (media 0.1N NaOH, pH 4.47 (A), 11.78 (Compound 1b), 8.88 (B1)); 18.7 mg/mL in series [2] (media SIF (simulated intestinal fluid), pH 4.78 (A), 7.85 (Compound 1b), 7.65 (B1)).
For `CP(=O)(O)C(C(=O)N/C=C/c1ccc(F)c(F)c1)c1csc2ccc(Cl)cc12.NC(CO)(CO)CO` (centres unmarked) [Form B1], the “Equilibrium solubility, free compound (mg) in media (ml)” value in series [2] (pH 1.5) worked out at 1.7 mg/mL; in series [2] (pH 4.47), 42.2 mg/mL; in series [2] (pH 4.78), 14.6 mg/mL.
Consider `CP(=O)(O)C(C(=O)N/C=C/c1ccc(F)c(F)c1)c1csc2ccc(Cl)cc12.NC(CO)(CO)CO` (centres unmarked) [Form B2], for which the Sorption in series [1] (0-90% RH) is reported as 0-90% RH: 2.085%. Moreover, the Desorption in series [1] (90-0% RH) is 90-0% RH: 2.231%.
Regarding `CNC[C@H](O)[C@@H](O)[C@H](O)[C@H](O)CO.CP(=O)(O)C(C(=O)N/C=C/c1ccc(F)c(F)c1)c1csc2ccc(Cl)cc12` (centres unmarked) [Form C2], the Sorption is 0-80% RH: 3.68% in series [1] (0-80% RH), 0-90% RH: 5.52% in series [1] (0-90% RH) and 80-90% RH: 1.84% in series [1] (80-90% RH). The figures for the Desorption in series [1] (10-0% RH), in series [1] (90-0% RH) and in series [1] (90-10% RH) were 10-0% RH: 2.75%, 90-0% RH: 6.66% and 90-10% RH: 3.91%, respectively. In series [2] (media not stated), the “Solubility (remained in solution; equilibrium solubility could not be determined)” value was over 232 mg/mL.
On to `CP(=O)([O-])C(C(=O)N/C=C/c1ccc(F)c(F)c1)c1csc2ccc(Cl)cc12.[K+]` (centres unmarked) [Form F1], for which the Sorption in series [1] (0-60% RH) is 0-60% RH: 0.00%; in series [1] (0-90% RH) it was 0-90% RH: 11.35%; in series [1] (60-70% RH), 60-70% RH: 0.30%; in series [1] (70-80% RH) it was 70-80% RH: 2.46%; in series [1] (80-90% RH), 80-90% RH: 8.59%. Moreover, in series [1] (90-0% RH), the Desorption is 90-0% RH: 16.81%.
`CP(=O)([O-])C(C(=O)N/C=C/c1ccc(F)c(F)c1)c1csc2ccc(Cl)cc12.[K+]` (centres unmarked) [Form F2]: the Sorption in series [1] (0-60% RH) is recorded as 0-60% RH: 0.00%; in series [1] (0-90% RH), 0-90% RH: 11.35%; in series [1] (60-70% RH), 60-70% RH: 0.30%; in series [1] (70-80% RH), 70-80% RH: 2.46%; in series [1] (80-90% RH), 80-90% RH: 8.59%. For the same molecule, the Desorption in series [1] (90-0% RH) was 90-0% RH: 16.81%.
In the case of `CP(=O)([O-])C(C(=O)N/C=C/c1ccc(F)c(F)c1)c1csc2ccc(Cl)cc12.[K+]` (centres unmarked) [Form F3], the Sorption in series [1] (0-60% RH) is reported as 0-60% RH: 0.00%; in series [1] (0-90% RH), 0-90% RH: 11.35%; in series [1] (60-70% RH), 60-70% RH: 0.30%; in series [1] (70-80% RH), 70-80% RH: 2.46%; in series [1] (80-90% RH), 80-90% RH: 8.59%. The Desorption in series [1] (90-0% RH) is given as 90-0% RH: 16.81%.
